Structures can show the parent of a compound that is named as a salt.

What all share (assay type): biochemical
Conditions in all cases: recombinant human enzyme expressed in E. coli; 60 min pre-incubation with NADPH; 3 μM [3H]arginine

One assay addresses T1, Recombinant human nNOS (Homo sapiens, UniProt P29475).
T1 construct: made in house; host or cells: E. coli (lysate)
Nature of the assay: Screen 2: recombinant human NO synthase inhibition, L-[3H]citrulline formation (nNOS). The method, then:
(§1) Recombinant human NO synthases (iNOS, eNOS & nNOS) were expressed in E. coli and lysates were prepared in Hepes buffer (pH 7.4) containing co-factors (FAD, FMN, H4B), protease inhibitors, lysozyme and the detergent, CHAPS. These preparations were used, at suitable dilution, to assess inhibition of the various isoforms. Inhibition of NOS was determined by measuring the formation of L-[^3H]citrulline from L-[^3H]arginine using an adaptation of the method of Förstermann et al. Enzyme assays were performed in the presence of 3 μM [^3H]arginine, 1 mM NADPH and other co-factors required to support NOS activity (FAD, FMN, H4B, calmodulin, Ca^2+). […] Incubations continued for a further 60 min before the assays were quenched and [^3H]citrulline separated from unreacted substrate by chromatography on Dowex-50 W resin in a 96-well format.

Another assay deals with T2, Recombinant human eNOS (Homo sapiens, UniProt P29474).
T2 construct: made in house; host or cells: E. coli (lysate)
The assay is described as follows: Screen 2: recombinant human NO synthase inhibition, L-[3H]citrulline formation (eNOS).

In a further assay the target is T3, Recombinant human iNOS (Homo sapiens, UniProt P35228).
T3 construct: made in house; host or cells: E. coli (lysate)
The assay is described as follows: Screen 2: recombinant human NO synthase inhibition, L-[3H]citrulline formation (iNOS). As for the experimental part: as §1

T2 sequence (P29474 whole entry): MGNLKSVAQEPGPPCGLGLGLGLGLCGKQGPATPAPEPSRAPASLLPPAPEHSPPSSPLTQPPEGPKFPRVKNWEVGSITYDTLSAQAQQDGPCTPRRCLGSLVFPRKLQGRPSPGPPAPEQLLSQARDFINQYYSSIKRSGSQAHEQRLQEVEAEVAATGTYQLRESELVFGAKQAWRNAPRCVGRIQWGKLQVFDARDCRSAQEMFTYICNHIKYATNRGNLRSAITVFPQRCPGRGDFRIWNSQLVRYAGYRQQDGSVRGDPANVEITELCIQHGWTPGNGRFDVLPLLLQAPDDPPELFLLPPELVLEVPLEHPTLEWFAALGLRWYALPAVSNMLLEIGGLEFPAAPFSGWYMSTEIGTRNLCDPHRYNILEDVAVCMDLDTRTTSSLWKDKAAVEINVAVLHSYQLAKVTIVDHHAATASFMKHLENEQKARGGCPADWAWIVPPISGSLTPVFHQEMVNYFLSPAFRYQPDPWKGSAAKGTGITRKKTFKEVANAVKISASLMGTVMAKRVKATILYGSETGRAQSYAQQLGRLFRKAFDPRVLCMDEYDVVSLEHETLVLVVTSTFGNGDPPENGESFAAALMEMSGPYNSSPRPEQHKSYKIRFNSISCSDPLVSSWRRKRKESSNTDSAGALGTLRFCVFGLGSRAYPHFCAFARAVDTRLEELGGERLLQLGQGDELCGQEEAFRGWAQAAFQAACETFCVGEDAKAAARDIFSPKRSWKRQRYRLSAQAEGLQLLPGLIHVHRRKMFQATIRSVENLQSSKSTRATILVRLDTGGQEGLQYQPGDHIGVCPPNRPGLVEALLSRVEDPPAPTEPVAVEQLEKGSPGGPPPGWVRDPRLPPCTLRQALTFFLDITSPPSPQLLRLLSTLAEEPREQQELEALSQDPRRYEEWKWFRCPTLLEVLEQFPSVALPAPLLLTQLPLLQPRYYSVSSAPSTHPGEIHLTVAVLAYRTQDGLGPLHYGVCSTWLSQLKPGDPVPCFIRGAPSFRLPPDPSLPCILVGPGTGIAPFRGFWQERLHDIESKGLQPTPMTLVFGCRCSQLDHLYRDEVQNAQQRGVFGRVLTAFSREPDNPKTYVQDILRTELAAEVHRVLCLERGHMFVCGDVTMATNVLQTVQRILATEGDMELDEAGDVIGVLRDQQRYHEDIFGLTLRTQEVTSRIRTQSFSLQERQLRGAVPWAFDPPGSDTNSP
T1 sequence (P29475 whole entry): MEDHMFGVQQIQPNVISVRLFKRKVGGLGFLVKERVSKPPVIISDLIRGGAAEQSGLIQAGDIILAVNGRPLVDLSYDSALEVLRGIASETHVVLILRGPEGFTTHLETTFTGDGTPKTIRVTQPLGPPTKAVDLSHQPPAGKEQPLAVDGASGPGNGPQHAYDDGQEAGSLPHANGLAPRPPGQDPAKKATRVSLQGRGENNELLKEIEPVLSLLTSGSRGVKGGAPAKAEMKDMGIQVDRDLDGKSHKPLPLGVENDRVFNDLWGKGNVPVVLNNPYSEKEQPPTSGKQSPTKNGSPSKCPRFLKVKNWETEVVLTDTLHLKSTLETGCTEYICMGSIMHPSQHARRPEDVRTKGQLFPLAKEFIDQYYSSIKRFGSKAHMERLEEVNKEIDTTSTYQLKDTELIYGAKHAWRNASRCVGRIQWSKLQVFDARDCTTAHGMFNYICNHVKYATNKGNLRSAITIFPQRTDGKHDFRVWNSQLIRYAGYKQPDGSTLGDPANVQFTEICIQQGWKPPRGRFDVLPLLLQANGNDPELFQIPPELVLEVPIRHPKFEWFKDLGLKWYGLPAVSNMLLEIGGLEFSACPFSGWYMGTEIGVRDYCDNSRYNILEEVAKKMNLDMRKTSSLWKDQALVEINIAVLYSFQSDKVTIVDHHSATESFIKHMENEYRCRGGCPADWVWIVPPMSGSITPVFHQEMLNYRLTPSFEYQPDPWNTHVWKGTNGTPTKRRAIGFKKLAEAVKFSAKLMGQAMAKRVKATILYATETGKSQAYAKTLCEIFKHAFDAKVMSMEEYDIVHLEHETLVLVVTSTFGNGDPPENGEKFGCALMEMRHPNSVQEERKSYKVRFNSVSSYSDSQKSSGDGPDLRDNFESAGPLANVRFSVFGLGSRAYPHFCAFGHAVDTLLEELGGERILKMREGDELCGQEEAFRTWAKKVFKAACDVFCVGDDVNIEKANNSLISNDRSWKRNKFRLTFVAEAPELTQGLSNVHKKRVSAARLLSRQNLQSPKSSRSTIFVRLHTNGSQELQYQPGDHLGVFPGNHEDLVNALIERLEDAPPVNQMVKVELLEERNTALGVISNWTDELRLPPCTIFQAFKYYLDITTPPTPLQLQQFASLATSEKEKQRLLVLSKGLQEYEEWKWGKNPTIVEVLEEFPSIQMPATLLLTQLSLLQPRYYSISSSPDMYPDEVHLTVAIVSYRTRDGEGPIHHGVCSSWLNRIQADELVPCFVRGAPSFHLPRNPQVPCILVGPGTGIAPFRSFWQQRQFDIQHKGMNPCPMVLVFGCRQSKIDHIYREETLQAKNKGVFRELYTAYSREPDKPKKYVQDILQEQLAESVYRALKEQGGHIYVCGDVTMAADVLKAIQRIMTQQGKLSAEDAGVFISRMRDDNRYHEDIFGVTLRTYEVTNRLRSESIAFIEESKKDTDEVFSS
T3 sequence (P35228 whole entry): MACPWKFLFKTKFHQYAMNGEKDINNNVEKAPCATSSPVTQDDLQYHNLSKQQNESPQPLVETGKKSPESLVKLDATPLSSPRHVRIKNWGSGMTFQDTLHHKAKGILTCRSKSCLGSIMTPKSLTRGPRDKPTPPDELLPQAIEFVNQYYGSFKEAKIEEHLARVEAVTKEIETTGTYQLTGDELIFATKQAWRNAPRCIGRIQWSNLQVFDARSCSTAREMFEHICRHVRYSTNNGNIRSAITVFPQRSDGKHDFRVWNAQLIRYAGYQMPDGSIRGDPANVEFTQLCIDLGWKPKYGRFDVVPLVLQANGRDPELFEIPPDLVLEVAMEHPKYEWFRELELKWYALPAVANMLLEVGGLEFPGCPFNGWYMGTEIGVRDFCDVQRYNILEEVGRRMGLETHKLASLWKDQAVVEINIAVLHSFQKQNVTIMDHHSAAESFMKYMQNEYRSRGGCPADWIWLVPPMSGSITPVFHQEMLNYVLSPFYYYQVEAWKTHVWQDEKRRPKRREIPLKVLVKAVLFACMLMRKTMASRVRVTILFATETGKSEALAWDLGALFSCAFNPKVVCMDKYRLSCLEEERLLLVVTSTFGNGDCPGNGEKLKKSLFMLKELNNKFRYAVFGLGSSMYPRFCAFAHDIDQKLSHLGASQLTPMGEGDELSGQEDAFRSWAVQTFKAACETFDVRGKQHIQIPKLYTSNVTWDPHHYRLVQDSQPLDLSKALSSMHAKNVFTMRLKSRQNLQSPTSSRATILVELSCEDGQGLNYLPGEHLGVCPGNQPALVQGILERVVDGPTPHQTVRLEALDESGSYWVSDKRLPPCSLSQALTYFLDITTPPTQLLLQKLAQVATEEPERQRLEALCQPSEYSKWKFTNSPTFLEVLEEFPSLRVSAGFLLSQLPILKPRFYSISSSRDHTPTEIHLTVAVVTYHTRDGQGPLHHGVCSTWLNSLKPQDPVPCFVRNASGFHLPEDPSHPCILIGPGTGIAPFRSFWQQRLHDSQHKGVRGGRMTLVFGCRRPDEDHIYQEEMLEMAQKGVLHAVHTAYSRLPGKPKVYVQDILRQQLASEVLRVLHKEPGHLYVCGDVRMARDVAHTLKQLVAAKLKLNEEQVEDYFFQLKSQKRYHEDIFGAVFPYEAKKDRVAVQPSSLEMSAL

The IC50 is the midpoint of a concentration-inhibition curve. Regarding `CNCc1ccc(Oc2cc(Cl)ccc2C#N)c2ccccc12` [Example 24, 4-Chloro-2-[4-(methylaminomethyl)naphthalen-1-yloxy]benzonitrile fumarate], the half-maximal inhibitory concentration (IC50) on Recombinant human nNOS stood at 0.039 µM; at Recombinant human eNOS it was 5.4 µM; on Recombinant human iNOS, 0.16 µM.
For `CN(C)Cc1cccc(Oc2cc(Cl)ccc2C#N)c1` [Example 25, 4-Chloro-2-[3-(dimethylaminomethyl)phenoxy]benzonitrile fumarate], the IC50 on Recombinant human nNOS was 0.2 µM; at Recombinant human eNOS it was 44 µM; on Recombinant human iNOS, 0.09 µM.
On the same counts, the results for `CNCc1cccc(Oc2cc(Cl)ccc2C#N)c1` [Example 10, 4-Chloro-2-(3-methylaminomethyl-phenoxy)-benzonitrile fumarate] are 0.0048 µM, 0.34 µM and 0.0029 µM.
